Reference: PMC4503722, “Novel Phenotypic Outcomes Identified for a Public Collection of Approved Drugs from a Publicly Accessible Panel of Assays” (PLoS ONE, 2015)

What was measured:
[1] = test system: nuclear β-catenin in C2C12 cells; experiment: cells; type: cell-based; conditions: assay number 5; concentration response
STC-1 cell line = type: cell-based, mouse; conditions: assay number 13
[2] = test system: alkaline phosphatase (ALP) activity in C2C12 cells; type: cell-based; conditions: assay number 6; concentration response
NCI-H716 cells = experiment: cells; type: cell-based, Human; conditions: assay number 12
[3] = test system: ECFC/ADSC co-culture cell nuclei number
hJAK2 = molecular target: T1, hJAK2 (Homo sapiens, UniProt O60674); experiment: Cerep LANCE kinase assay hJAK2 (S1 assay 33); type: biochemical; conditions: assay number 33
T1 construct: purchased Cerep (LANCE kinase assay platform, contract assay)
T1 sequence (O60674 whole entry): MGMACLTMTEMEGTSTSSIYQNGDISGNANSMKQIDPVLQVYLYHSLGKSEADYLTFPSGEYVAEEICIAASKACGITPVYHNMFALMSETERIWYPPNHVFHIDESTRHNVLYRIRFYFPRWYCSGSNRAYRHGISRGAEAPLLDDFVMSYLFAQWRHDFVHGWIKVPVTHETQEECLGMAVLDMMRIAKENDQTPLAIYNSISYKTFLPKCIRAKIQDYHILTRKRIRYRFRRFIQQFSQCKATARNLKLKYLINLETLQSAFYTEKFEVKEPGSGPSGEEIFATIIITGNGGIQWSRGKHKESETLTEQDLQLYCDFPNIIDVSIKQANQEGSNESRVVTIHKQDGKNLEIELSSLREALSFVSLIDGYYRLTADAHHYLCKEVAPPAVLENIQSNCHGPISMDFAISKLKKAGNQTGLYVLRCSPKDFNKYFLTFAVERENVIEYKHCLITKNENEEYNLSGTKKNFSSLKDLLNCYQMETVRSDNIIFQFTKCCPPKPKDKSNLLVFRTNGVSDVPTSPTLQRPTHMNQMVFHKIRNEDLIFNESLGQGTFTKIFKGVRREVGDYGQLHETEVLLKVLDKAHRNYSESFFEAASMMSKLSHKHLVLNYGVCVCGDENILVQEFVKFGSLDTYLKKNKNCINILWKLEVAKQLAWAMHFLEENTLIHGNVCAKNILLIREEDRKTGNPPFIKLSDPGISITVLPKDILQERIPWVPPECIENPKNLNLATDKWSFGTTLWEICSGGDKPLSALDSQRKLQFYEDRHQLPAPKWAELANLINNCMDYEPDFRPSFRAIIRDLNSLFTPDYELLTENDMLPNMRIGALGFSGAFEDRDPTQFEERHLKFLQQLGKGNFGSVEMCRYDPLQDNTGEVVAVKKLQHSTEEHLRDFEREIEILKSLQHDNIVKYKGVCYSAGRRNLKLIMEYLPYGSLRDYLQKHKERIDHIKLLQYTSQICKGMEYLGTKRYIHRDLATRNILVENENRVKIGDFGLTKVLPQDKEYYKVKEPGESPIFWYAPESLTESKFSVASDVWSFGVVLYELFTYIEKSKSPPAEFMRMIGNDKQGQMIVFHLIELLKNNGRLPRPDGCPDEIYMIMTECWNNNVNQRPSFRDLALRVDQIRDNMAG

hFLT3 = molecular target: T2, hFLT3 (Homo sapiens, UniProt P36888); experiment: Cerep LANCE kinase assay hFLT3 (S1 assay 35); type: biochemical; conditions: assay number 35
T2 construct: purchased Cerep (LANCE kinase assay platform, contract assay)
T2 sequence (P36888 27-993): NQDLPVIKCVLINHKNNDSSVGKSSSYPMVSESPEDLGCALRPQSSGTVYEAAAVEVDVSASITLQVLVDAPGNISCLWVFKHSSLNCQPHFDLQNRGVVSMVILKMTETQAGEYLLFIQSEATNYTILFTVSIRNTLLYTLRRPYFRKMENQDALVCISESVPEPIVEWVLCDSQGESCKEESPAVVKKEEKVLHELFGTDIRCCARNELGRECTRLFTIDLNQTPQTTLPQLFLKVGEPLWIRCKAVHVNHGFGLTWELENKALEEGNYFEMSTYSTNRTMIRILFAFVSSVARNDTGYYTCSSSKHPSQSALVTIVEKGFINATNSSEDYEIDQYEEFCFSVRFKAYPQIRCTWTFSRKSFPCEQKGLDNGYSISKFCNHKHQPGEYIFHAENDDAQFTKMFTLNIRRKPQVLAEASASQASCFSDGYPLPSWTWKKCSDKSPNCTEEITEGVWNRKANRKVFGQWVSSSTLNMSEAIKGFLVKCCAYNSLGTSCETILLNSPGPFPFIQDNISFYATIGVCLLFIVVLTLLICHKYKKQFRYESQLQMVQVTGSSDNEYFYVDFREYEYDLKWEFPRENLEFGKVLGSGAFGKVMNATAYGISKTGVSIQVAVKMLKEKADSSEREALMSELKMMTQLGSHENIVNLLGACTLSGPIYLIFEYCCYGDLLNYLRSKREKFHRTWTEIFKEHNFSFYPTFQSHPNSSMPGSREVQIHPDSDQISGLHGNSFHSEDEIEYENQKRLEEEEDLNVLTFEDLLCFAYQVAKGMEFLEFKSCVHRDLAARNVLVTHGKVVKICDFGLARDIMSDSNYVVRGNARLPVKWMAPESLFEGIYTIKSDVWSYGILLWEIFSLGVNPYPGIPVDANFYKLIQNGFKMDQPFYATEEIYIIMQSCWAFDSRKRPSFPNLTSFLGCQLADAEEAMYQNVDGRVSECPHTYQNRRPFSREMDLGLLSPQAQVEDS

HeLa cells = experiment: cells; type: cell-based; conditions: for Hela CellCycMod PI 2N IC50/EC50: assay number 14; for Hela CellCycMod PI S Phase IC50/EC50: assay number 15; for Hela CellCycMod PI 4N IC50/EC50: assay number 16; for Hela CellCycMod PI MI IC50/EC50: assay number 17; for Hela CellCycMod PI Cell Number IC50/EC50: assay number 18
SNU-C1 = experiment: cells; type: cell-based; conditions: assay number 30
[4] = test system: endothelial tube formation in co-cultures of ECFCs and ADSCs treated with VEGF; experiment: cells; type: cell-based, human
INS-1E cells = experiment: cells; type: cell-based, rat; conditions: assay number 8; 5 mM glucose;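 note: secreted insulin quantified by homogeneous immunoassay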
Colo320 = experiment: cells; type: cell-based; conditions: assay number 27
[5] = test system: HCT116 cells treated with a GSK3β inhibitor; experiment: cells; type: cell-based; conditions: assay number 26; GSK3b inhibitor pretreated
DLD-1 = experiment: cells; type: cell-based; conditions: assay number 23
hp70S6K1 (RPS6KB1) = molecular target: T3, hp70S6K1 (RPS6KB1) (Homo sapiens, UniProt P23443); experiment: Cerep LANCE kinase assay hp70S6K1 (S1 assay 31); type: biochemical; conditions: assay number 31
T3 construct: purchased Cerep (LANCE kinase assay platform, contract assay)
T3 sequence (P23443 whole entry): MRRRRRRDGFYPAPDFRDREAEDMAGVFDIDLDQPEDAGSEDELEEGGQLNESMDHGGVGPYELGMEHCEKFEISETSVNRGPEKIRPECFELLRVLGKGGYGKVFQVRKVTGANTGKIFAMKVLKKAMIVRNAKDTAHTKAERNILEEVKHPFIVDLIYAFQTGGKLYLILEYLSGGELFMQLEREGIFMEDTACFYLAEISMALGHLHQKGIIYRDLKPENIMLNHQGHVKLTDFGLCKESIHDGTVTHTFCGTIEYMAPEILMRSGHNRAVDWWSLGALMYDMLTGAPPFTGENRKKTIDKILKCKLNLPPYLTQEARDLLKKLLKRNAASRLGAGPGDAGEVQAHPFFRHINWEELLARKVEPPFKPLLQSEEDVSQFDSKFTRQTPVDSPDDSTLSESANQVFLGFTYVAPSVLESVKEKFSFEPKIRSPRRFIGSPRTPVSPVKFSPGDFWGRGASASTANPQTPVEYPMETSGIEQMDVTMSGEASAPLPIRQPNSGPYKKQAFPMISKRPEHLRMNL

RKO = experiment: cells; type: cell-based; conditions: assay number 29
HT-29 = experiment: cells; type: cell-based; conditions: assay number 28
hGSK3b = molecular target: T4, hGSK3b (Homo sapiens, UniProt P49841); experiment: Cerep LANCE kinase assay hGSK3b (S1 assay 34); type: biochemical; conditions: assay number 34
T4 construct: purchased Cerep (LANCE kinase assay platform, contract assay)
T4 sequence (P49841 whole entry): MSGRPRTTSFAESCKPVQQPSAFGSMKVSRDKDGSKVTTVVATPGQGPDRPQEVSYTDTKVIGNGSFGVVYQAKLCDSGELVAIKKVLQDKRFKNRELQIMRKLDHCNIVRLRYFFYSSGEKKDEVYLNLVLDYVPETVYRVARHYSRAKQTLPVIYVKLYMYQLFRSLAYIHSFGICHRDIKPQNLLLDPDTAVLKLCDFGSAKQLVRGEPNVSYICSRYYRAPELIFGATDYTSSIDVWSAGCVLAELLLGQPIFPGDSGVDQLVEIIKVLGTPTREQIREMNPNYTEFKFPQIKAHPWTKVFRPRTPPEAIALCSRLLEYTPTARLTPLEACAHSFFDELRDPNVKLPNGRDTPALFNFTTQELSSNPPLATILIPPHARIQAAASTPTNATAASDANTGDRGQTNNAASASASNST

hKDR = molecular target: T5, hKDR (Homo sapiens, UniProt P35968); experiment: Cerep LANCE kinase assay hKDR (S1 assay 32); type: biochemical; conditions: assay number 32
T5 construct: purchased Cerep (LANCE kinase assay platform, contract assay)
T5 sequence (P35968 20-1356): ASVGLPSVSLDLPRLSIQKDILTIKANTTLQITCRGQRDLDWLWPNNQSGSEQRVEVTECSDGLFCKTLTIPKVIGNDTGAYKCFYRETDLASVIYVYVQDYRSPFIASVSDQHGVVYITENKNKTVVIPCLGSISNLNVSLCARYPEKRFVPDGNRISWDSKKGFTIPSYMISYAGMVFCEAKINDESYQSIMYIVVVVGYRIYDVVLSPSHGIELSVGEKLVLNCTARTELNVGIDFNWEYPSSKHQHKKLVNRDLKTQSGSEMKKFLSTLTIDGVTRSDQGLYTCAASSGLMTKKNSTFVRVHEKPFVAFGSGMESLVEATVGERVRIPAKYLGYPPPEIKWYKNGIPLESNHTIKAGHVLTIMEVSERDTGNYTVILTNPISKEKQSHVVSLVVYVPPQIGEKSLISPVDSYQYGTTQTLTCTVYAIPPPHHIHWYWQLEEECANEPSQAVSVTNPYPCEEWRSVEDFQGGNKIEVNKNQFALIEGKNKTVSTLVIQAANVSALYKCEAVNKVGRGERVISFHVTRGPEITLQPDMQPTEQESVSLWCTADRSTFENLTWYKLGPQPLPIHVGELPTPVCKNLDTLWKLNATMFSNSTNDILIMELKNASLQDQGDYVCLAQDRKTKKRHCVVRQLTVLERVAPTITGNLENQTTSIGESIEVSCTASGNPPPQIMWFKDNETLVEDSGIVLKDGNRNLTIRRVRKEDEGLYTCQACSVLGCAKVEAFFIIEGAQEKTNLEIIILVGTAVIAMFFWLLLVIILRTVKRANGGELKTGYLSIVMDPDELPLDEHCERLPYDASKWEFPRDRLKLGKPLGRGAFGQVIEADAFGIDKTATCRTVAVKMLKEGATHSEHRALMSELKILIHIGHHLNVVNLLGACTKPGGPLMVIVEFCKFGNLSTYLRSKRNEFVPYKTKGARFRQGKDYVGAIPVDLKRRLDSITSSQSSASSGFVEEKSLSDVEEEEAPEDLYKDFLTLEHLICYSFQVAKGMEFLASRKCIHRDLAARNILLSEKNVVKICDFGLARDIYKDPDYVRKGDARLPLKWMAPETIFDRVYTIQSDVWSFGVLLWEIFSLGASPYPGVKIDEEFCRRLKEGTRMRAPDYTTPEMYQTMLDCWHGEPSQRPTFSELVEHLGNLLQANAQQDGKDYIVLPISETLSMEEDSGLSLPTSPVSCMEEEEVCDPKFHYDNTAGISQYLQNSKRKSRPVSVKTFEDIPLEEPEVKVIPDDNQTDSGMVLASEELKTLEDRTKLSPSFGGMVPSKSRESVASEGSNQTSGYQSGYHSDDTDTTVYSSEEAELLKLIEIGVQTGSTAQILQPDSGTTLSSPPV

SW480 = experiment: cells; type: cell-based; conditions: assay number 24
HCT116 = experiment: cells; type: cell-based; conditions: assay number 25; basal

Question: What does the source list for `C#C[C@]1(O)CC[C@H]2[C@@H]3CCc4cc(OC5CCCC5)ccc4[C@H]3CC[C@@]21C` [NCGC00166146-02]?
Answer: WntCondMedia_bCatenin C2C12 IC50/EC50 [1]: > 20 µM; mSTC-1 GLP1 Secretion IC50/EC50 (STC-1 cell line): > 40 µM; WntCondMedia_Alk Phos C2C12 IC50/EC50 [2]: > 20 µM; hNCI-H716 GLP1 Secretion IC50/EC50 (NCI-H716 cells): 17.5795 µM

Question: What does the source list for `CC(=O)Oc1ccc(C2(c3ccc(OC(C)=O)cc3)Oc3ccccc3NC2=O)cc1` [NCGC00182998-01]?
Answer: VEGF_ADSC\ECFC Angio Hoechst NucArea IC50/EC50 [3]: > 10 µM; hJAK2 LANCE IC50/EC50 (hJAK2): > 20 µM; hFLT3 LANCE IC50/EC50 (hFLT3): > 20 µM; WntCondMedia_bCatenin C2C12 IC50/EC50 [1]: > 20 µM; Hela CellCycMod PI 2N IC50/EC50 (HeLa cells): > 10 µM; Hela CellCycMod PI S Phase IC50/EC50 (HeLa cells): > 10 µM; Hela CellCycMod PI 4N IC50/EC50 (HeLa cells): > 10 µM; Hela CellCycMod PI MI IC50/EC50 (HeLa cells): > 10 µM; Hela CellCycMod PI Cell Number IC50/EC50 (HeLa cells): 5.7532 µM; WntCondMedia_Alk Phos C2C12 IC50/EC50 [2]: 13.9611 µM; Basal_Viability ATP SNU-C1 IC50/EC50 (SNU-C1): > 20 µM; VEGF_ADSC\ECFC Angio CD31 TubeArea IC50/EC50 [4]: 2.2736 µM; 5mMGluc_INS1E SecretionMod IC50/EC50 (INS-1E cells): > 33.33 µM; Basal_Viability ATP Colo 320 IC50/EC50 (Colo320): > 20 µM; GSK3b inh pretreated_Viability ATP HCT116 IC50/EC50 [5]: 3.2604 µM; Basal_Viability ATP DLD-1 IC50/EC50 (DLD-1): 19.7291 µM; hp70S6K1 LANCE IC50/EC50 (hp70S6K1 (RPS6KB1)): > 20 µM; Basal_Viability ATP RKO IC50/EC50 (RKO): 9.2255 µM; Basal_Viability ATP HT-29 IC50/EC50 (HT-29): > 20 µM; hGSK3b LANCE IC50/EC50 (hGSK3b): > 20 µM; hKDR LANCE IC50/EC50 (hKDR): > 20 µM; Basal_Viability ATP SW480 IC50/EC50 (SW480): 9.1881 µM

Question: Which “VEGF_ADSC\ECFC Angio Hoechst NucArea IC50/EC50” value [3] does the source give for `c1ccc2c(c1)Sc1ccccc1N2CC1CN2CCC1CC2` (centres unmarked) [NCGC00183046-03] here?
Answer: > 10 µM

Question: What about the “WntCondMedia_bCatenin C2C12 IC50/EC50” value [1] of the same molecule?
Answer: > 20 µM

Question: And the “mSTC-1 GLP1 Secretion IC50/EC50” value (STC-1 cell line)?
Answer: > 40 µM

Question: And the “WntCondMedia_Alk Phos C2C12 IC50/EC50” value [2]?
Answer: > 20 µM

Question: What about the “Basal_Viability ATP SNU-C1 IC50/EC50” value (SNU-C1; basal) of the same molecule?
Answer: > 20 µM

Question: What about the “VEGF_ADSC\ECFC Angio CD31 TubeArea IC50/EC50” value [4] of the same molecule?
Answer: 9.4389 µM

Question: What about the “hNCI-H716 GLP1 Secretion IC50/EC50” value (NCI-H716 cells) of the same molecule?
Answer: > 40 µM

Question: What about the “Basal_Viability ATP Colo 320 IC50/EC50” value (Colo320; basal) of the same molecule?
Answer: > 20 µM

Question: What about the “GSK3b inh pretreated_Viability ATP HCT116 IC50/EC50” value [5] of the same molecule?
Answer: > 20 µM

Question: What about the “Basal_Viability ATP DLD-1 IC50/EC50” value (DLD-1; basal) of the same molecule?
Answer: > 20 µM

Question: And the “Basal_Viability ATP RKO IC50/EC50” value (RKO; basal)?
Answer: 8.4586 µM

Question: What about the “Basal_Viability ATP HCT116 IC50/EC50” value (HCT116) of the same molecule?
Answer: > 20 µM

Question: And the “Basal_Viability ATP HT-29 IC50/EC50” value (HT-29; basal)?
Answer: > 20 µM

Question: What about the “Basal_Viability ATP SW480 IC50/EC50” value (SW480; basal) of the same molecule?
Answer: 5.431 µM

Question: For `Cc1ccc2nc(N)[nH]c(=O)c2c1Sc1ccncc1.Cl.Cl` [NCGC00263580-01], which “VEGF_ADSC\ECFC Angio Hoechst NucArea IC50/EC50” value [3] is on record?
Answer: > 10 µM

Question: What about the “hJAK2 LANCE IC50/EC50” value (hJAK2) of the same molecule?
Answer: > 20 µM

Question: And the “hFLT3 LANCE IC50/EC50” value (hFLT3)?
Answer: > 20 µM

Question: What about the “WntCondMedia_bCatenin C2C12 IC50/EC50” value [1] of the same molecule?
Answer: 0.7099 µM

Question: And the “Hela CellCycMod PI 2N IC50/EC50” value (HeLa cells)?
Answer: > 10 µM

Question: And the “Hela CellCycMod PI S Phase IC50/EC50” value (HeLa cells)?
Answer: > 10 µM

Question: And the “Hela CellCycMod PI 4N IC50/EC50” value (HeLa cells)?
Answer: > 10 µM

Question: And the “Hela CellCycMod PI MI IC50/EC50” value (HeLa cells)?
Answer: > 10 µM

Question: And the “Hela CellCycMod PI Cell Number IC50/EC50” value (HeLa cells)?
Answer: > 10 µM

Question: What about the “WntCondMedia_Alk Phos C2C12 IC50/EC50” value [2] of the same molecule?
Answer: 0.2444 µM

Question: What about the “Basal_Viability ATP SNU-C1 IC50/EC50” value (SNU-C1) of the same molecule?
Answer: > 20 µM

Question: What about the “VEGF_ADSC\ECFC Angio CD31 TubeArea IC50/EC50” value [4] of the same molecule?
Answer: 7.3662 µM

Question: What about the “Basal_Viability ATP Colo 320 IC50/EC50” value (Colo320) of the same molecule?
Answer: > 20 µM

Question: What about the “GSK3b inh pretreated_Viability ATP HCT116 IC50/EC50” value [5] of the same molecule?
Answer: 0.8299 µM

Question: What about the “Basal_Viability ATP DLD-1 IC50/EC50” value (DLD-1) of the same molecule?
Answer: > 20 µM

Question: And the “hp70S6K1 LANCE IC50/EC50” value (hp70S6K1 (RPS6KB1))?
Answer: 17.8 µM

Question: And the “Basal_Viability ATP RKO IC50/EC50” value (RKO)?
Answer: 0.3429 µM

Question: And the “Basal_Viability ATP HCT116 IC50/EC50” value (HCT116)?
Answer: 3.495 µM

Question: What about the “Basal_Viability ATP HT-29 IC50/EC50” value (HT-29) of the same molecule?
Answer: 4.747 µM

Question: And the “hGSK3b LANCE IC50/EC50” value (hGSK3b)?
Answer: > 20 µM

Question: What about the “hKDR LANCE IC50/EC50” value (hKDR) of the same molecule?
Answer: > 20 µM

Question: And the “Basal_Viability ATP SW480 IC50/EC50” value (SW480)?
Answer: 2.241 µM
